Source: PubChem BioAssay AID2060903 (Molecular Pharmacology Branch, DTP, NCI, 2025)

Tested on: 377384-186-R-J1-PDC complex spheroid viability
Experiment: Anticancer human tumor 377384-186-R-J1-PDC patient-derived pancreatic carcinoma cell line growth inhibition [RAS]
Conditions: for IC50: curve of first compound; for viability, T/C: stronger effect = lower value
In short: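 Agents were tested in combination matrices in half-log decrements from a top concentration at or near clinical Cmax (10 microM if undetermined). Targets were multi-cell spheroids of tumour lines plus HUVEC and MSC stromal cells.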

[1] = second compound 0.000949 µM, first compound 0.0316 µM
[2] = second compound 0.000949 µM, first compound 0.1 µM
[3] = second compound 0.000949 µM, first compound 0.316 µM
[4] = second compound 0.000949 µM, first compound 1 µM
[5] = second compound 0.000949 µM, first compound 3.16 µM
[6] = second compound 0.000949 µM, first compound 10 µM
[7] = second compound 0.003 µM, first compound 0.0316 µM
[8] = second compound 0.003 µM, first compound 0.1 µM
[9] = second compound 0.003 µM, first compound 0.316 µM
[10] = second compound 0.003 µM, first compound 1 µM
[11] = second compound 0.003 µM, first compound 3.16 µM
[12] = second compound 0.003 µM, first compound 10 µM
[13] = second compound 0.00949 µM, first compound 0.0316 µM
[14] = second compound 0.00949 µM, first compound 0.1 µM
[15] = second compound 0.00949 µM, first compound 0.316 µM
[16] = second compound 0.00949 µM, first compound 1 µM
[17] = second compound 0.00949 µM, first compound 3.16 µM
[18] = second compound 0.00949 µM, first compound 10 µM
[19] = second compound 0.03 µM, first compound 0.0316 µM
[20] = second compound 0.03 µM, first compound 0.1 µM
[21] = second compound 0.03 µM, first compound 0.316 µM
[22] = second compound 0.03 µM, first compound 1 µM
[23] = second compound 0.03 µM, first compound 3.16 µM
[24] = second compound 0.03 µM, first compound 10 µM
[25] = second compound 0.0949 µM, first compound 0.0316 µM
[26] = second compound 0.0949 µM, first compound 0.1 µM
[27] = second compound 0.0949 µM, first compound 0.316 µM
[28] = second compound 0.0949 µM, first compound 1 µM
[29] = second compound 0.0949 µM, first compound 3.16 µM
[30] = second compound 0.0949 µM, first compound 10 µM
[31] = second compound 0.3 µM, first compound 0.0316 µM
[32] = second compound 0.3 µM, first compound 0.1 µM
[33] = second compound 0.3 µM, first compound 0.316 µM
[34] = second compound 0.3 µM, first compound 1 µM
[35] = second compound 0.3 µM, first compound 3.16 µM
[36] = second compound 0.3 µM, first compound 10 µM
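Note: spheroids exposed to compounds for seven days before readout.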

In the case of `CC1(O)CCCC1n1c(=O)c(C(F)F)cc2cnc(NC3CCN(S(C)(=O)=O)CC3)nc21` (centres undefined) + CCn1c(-c2cccnc2C(C)OC)c2c3cc(ccc31)N1CCOC(CC(NC(=O)C(C(C)C)N(C)C(=O)C3(F)CCN(C(=O)C#CC(C)(C)N(C)C)CC3)C(=O)N3CCCC(N3)C(=O)OCC(C)(C)C2)C1, the IC50 (second compound 0.000949 µM) is reported as 91.3 nM, the IC50 (second compound 0.003 µM) is reported as 105 nM and the IC50 (second compound 0.00949 µM) is reported as 122 nM. For the same molecule, the IC50 (second compound 0.03 µM) was 111 nM, the IC50 (second compound 0.0949 µM) was 78.5 nM and the IC50 (second compound 0.3 µM) was 62.8 nM. The viability, T/C [1] was 79.6%, the viability, T/C [2] was 46.6% and the viability, T/C [3] was 28.9%. The viability, T/C [4] was 28.6%, the viability, T/C [5] was 35.1% and the viability, T/C [6] was 9.26%. It also gave a viability, T/C [7] of 76.8%, a viability, T/C [8] of 52.7% and a viability, T/C [9] of 28.8%. For the same molecule, the viability, T/C [10] was 26.6%, the viability, T/C [11] was 34.8% and the viability, T/C [12] was 8.79%. It also gave a viability, T/C [13] of 84.6%, a viability, T/C [14] of 55.6% and a viability, T/C [15] of 27%. It also gave a viability, T/C [16] of 29.7%, a viability, T/C [17] of 36% and a viability, T/C [18] of 7.91%. The viability, T/C [19] was 67.4%, the viability, T/C [20] was 52.6% and the viability, T/C [21] was 24.9%. It also gave a viability, T/C [22] of 21.5%, a viability, T/C [23] of 34.7% and a viability, T/C [24] of 7.53%. For the same molecule, the viability, T/C [25] was 71.3%, the viability, T/C [26] was 46.5% and the viability, T/C [27] was 23.9%. For the same molecule, the viability, T/C [28] was 22.2%, the viability, T/C [29] was 33.4% and the viability, T/C [30] was 6.19%. For the same molecule, the viability, T/C [31] was 68%, the viability, T/C [32] was 37.7% and the viability, T/C [33] was 18.6%. It also gave a viability, T/C [34] of 22.7%, a viability, T/C [35] of 34.7% and a viability, T/C [36] of 5.35%.
`CCC(CC)c1cc(NC2CCC(N)C2)n2nccc2n1` (centres undefined) + CCn1c(-c2cccnc2C(C)OC)c2c3cc(ccc31)N1CCOC(CC(NC(=O)C(C(C)C)N(C)C(=O)C3(F)CCN(C(=O)C#CC(C)(C)N(C)C)CC3)C(=O)N3CCCC(N3)C(=O)OCC(C)(C)C2)C1 was tested, and the IC50 (second compound 0.000949 µM) was 1720 nM, the IC50 (second compound 0.003 µM) was 1580 nM and the IC50 (second compound 0.00949 µM) was 1600 nM. For the same molecule, the IC50 (second compound 0.03 µM) was 1540 nM, the IC50 (second compound 0.0949 µM) was 1230 nM and the IC50 (second compound 0.3 µM) was 851 nM. For the same molecule, the viability, T/C [1] was 101%, the viability, T/C [2] was 96.9% and the viability, T/C [3] was 115%. It also gave a viability, T/C [4] of 91.9%, a viability, T/C [5] of 2.57% and a viability, T/C [6] of 3.88%. It also gave a viability, T/C [7] of 109%, a viability, T/C [8] of 115% and a viability, T/C [9] of 108%. For the same molecule, the viability, T/C [10] was 81%, the viability, T/C [11] was 2.93% and the viability, T/C [12] was 3.96%. The viability, T/C [13] was 90.4%, the viability, T/C [14] was 114% and the viability, T/C [15] was 120%. It also gave a viability, T/C [16] of 82.3%, a viability, T/C [17] of 3.02% and a viability, T/C [18] of 4.29%. The viability, T/C [19] was 104%, the viability, T/C [20] was 99% and the viability, T/C [21] was 107%. For the same molecule, the viability, T/C [22] was 77.6%, the viability, T/C [23] was 3.09% and the viability, T/C [24] was 4.72%. For the same molecule, the viability, T/C [25] was 90.8%, the viability, T/C [26] was 91.5% and the viability, T/C [27] was 95.8%. The viability, T/C [28] was 60.1%, the viability, T/C [29] was 3.31% and the viability, T/C [30] was 4.2%. For the same molecule, the viability, T/C [31] was 94%, the viability, T/C [32] was 86.1% and the viability, T/C [33] was 86.3%. For the same molecule, the viability, T/C [34] was 44.2%, the viability, T/C [35] was 3.73% and the viability, T/C [36] was 3.93%.
